Data published in PMC12670405, “Second-Generation AURKA-Targeting PROTACs: Structural Optimization toward in Vivo Degradation in Neuroblastoma” (Journal of Medicinal Chemistry, 2025).

Assays:
Assay in all cases: LC-MS/MS proteome profiling
Assay type in all cases: cell-based, Homo sapiens
JRKL = test system: JRKL; design: key to Significant (3h SK5527vs3h DMSO) FDR0 05 / Significant (24h SK5527vs24h DMSO) FDR0 05: +: Statistical significance for differential regulation was set to a false discovery rate (FDR) of < 0.05 and |log2FC| = 2
Method: IMR-32 cells were seeded in T-25 flasks at a density of 1.7 million cells/flask and treated the next day with DMSO (negative control), SK5527 (500 nM) or MK-5108 (500 nM) for 3 or 24 h (data for MK-5108 not discussed in this manuscript). Cell pellets were harvested at the respective time points, lysed, and the concentration of the obtained protein lysates measured as previously described. Details on further sample preparation, LC–MS/MS, and data analysis can be found in the Supporting Information. The LC–MS/MS proteomics data have been deposited to the ProteomeXchange Consortium via the PRIDE partner repository with the data set identifier PXD061539.
Supplementary Methods 1 – LC-MS/MS proteomics
From each sample, 100 µg of protein was isolated, the volumes were equalized with water and SDS and TEAB were added to a final concentration of 5% and 50 mM, respectively. Proteins were reduced and alkylated by addition of 10 mM Tris(2-carboxyethyl)phosphine hydrochloride and 40 mM chloroacetamide and incubation for 30 minutes at 25°C in the dark. Phosphoric acid was added to a final concentration of 1.2%, and samples were subsequently diluted 7-fold with binding buffer containing 90% methanol in 100 mM TEAB, pH 7.55. The samples were loaded on the 96-well S-Trap™ plate (Protifi), placed on top of a deepwell plate, and centrifuged for 2 min at 1,500 x g at RT. After protein binding, the S-trap™ plate was washed three times by adding 200 µl binding buffer and centrifugation for 2 min at 1,500 x g at RT. A new deepwell receiver plate was placed below the 96-well S-Trap™ plate and 50 mM TEAB containing trypsin (1/100, w/w) was added for digestion overnight at 37°C.
Using centrifugation for 2 min at 1,500 x g, peptides were eluted in three steps, first with 80 µl 50 mM TEAB, then with 80 µl 0.2% formic acid (FA) in water and finally with 80 µl 0.2% FA in water/acetonitrile (ACN) (50/50, v/v). Eluted peptides were dried completely by vacuum centrifugation.
Peptides were re-dissolved in 20 µl loading solvent A (0.1% trifluoroacetic acid in water/acetonitrile (ACN) (99.5:0.5, v/v)) of which 2 µl of sample was injected for LC-MS/MS analysis on an Ultimate 3000 ProFlow nanoLC system in-line connected to a Orbitrap Exploris 240 mass spectrometer (Thermo) equipped with pneu-Nimbus dual ion source (Phoenix S&T). Trapping was performed at 20 μl/min for 2 min in loading solvent A on a PepMap™ Neo Trap column (Thermo scientific, 300 μm internal diameter (I.D.), 5 μm beads). The peptides were separated on a 250 mm Odyssey Ultimate, 1.7µm C18, 75 µm inner diameter (Ionopticks) kept at a constant temperature of 45°C. Peptides were eluted by a gradient reaching 26,4 % MS solvent B (0.1% FA in acetonitrile) after 80 min, 44% MS solvent B at 95 min, 56% MS solvent B at 100min followed by a 5-minutes wash at 56% MS solvent B and re-equilibration with MS solvent A (0.1% FA in water). The flow rate was set to 250 nl/min. The mass spectrometer was operated in data-independent mode, automatically switching between MS and MS/MS acquisition. Full-scan MS spectra ranging from 375-1500 m/z with a normalized target value of 300%, a maximum fill time of 25 ms and a resolution at of 60,000 were followed by 30 quadrupole isolations with a precursor isolation width of 10 m/z for HCD fragmentation at an NCE of 30% after filling the trap at a normalized target value of 2000% for maximum injection time of 45 ms. MS2 spectra were acquired at a resolution of 15,000 with a scan range of 200-1800 m/z in the Orbitrap analyser without multiplexing. The isolation intervals were set from 400 – 900 m/z with a width of 10 m/z using window placement optimization. The polydimethylcyclosiloxane background ion at 445.120028 Da was used for internal calibration (lock mass) and QCloud has been used to control instrument longitudinal performance during the project.
Analysis of the mass spectrometry data was performed in DiaNN (version 1.9). Precursor false discovery rate was […]
set at 1%. […]

ABCA3 = conditions: SK5527 vs DMSO (24h)
Method: (§1) Analysis of the mass spectrometry data was performed in DiaNN (version 1.9). Precursor false discovery rate was set at 1%. Spectra were searched against the Homo sapiens protein sequences in the Uniprot database (database release version of 2024_01), containing 20,597 sequences (www.uniprot.org) and the imbedded protein contaminant list. Enzyme specificity was set as C-terminal to arginine and lysine, also allowing cleavage at proline bonds with a maximum of 2 missed cleavages. Variable modifications were set to oxidation of methionine residues and acetylation of protein N-termini while fixed modification was set to carbamidomethylation of cystein residues. Matching between runs was enabled. Mainly default settings were used, except for the addition of a 400-900 m/z precursor mass range filter and MS1 and MS2 mass tolerance was set to 10 and 20 ppm respectively.
(§2) Further data analysis of the results was performed with an in-house script in the R programming language.
(§3) Protein expression matrices were prepared as follows: the DIA-NN main report output table was filtered at a precursor and protein library q-value cut-off of 1 % and only proteins identified by at least one proteotypic peptide were retained. After pivoting into a wide format, iBAQ intensity columns were then added to the matrix using the DIAgui’s R package get_IBAQ function. PG MaxLFQ intensities were log2 transformed and replicate samples were grouped. Proteins with less than 3 valid values in at least one group were removed and missing values were imputed from a normal distribution centered around the detection limit (package DEP) leading to a list of 7,759 quantified proteins in the experiment, used for further data analysis. To compare protein abundance […]
(§4) 24h MK-5108 vs 24h DMSO sample groups), statistical testing for differences between two group means was performed, using the package limma. Statistical significance for differential regulation was set to a false discovery rate (FDR) of < 0.05 and |log2FC| = 2.

HAND2 = conditions: SK5527 vs DMSO (24h)
Method: as §1, §2, §3, §4

SIPA1L3 = conditions: SK5527 vs DMSO (24h)
Method: as §1, §2, §3, §4

SMTN = conditions: SK5527 vs DMSO (24h)
Method: as §1, §2, §3, §4

ZNF7 = conditions: SK5527 vs DMSO (24h)
Method: as §1, §2, §3, §4

ZSCAN22 = conditions: SK5527 vs DMSO
Method: as §1, §2, §3, §4

Q: How did the “Significant (3h SK5527vs3h DMSO) FDR0 05” value (JRKL; IMR-32, 3h) turn out when Cc1cc(Nc2ccc(F)c(CC3(C(=O)N4CCC(F)(CN5CCN(c6ccc(N7CCC(=O)NC7=O)cn6)CC5)CC4)CCN(Cc4cccc(Cl)c4F)CC3)n2)n[nH]1 [SK5527] was run?
A: The value was “+”.

Q: And the “logFC (3h SK5527vs3h DMSO)” value (JRKL; IMR-32, 3h)?
A: The value was 5.38.

Q: And the “Significant (24h SK5527vs24h DMSO) FDR0 05” value (JRKL; IMR-32, 24h)?
A: The value was “+”.

Q: And the “logFC (24h SK5527vs24h DMSO)” value (JRKL; IMR-32, 24h)?
A: The value was 3.68.

Q: And the “logFC JRKL” value (JRKL; SK5527 vs DMSO (3h))?
A: Its value is 5.38.

Q: And the “logFC JRKL” value (JRKL; SK5527 vs DMSO (24h))?
A: The value was 3.68.

Q: And the “logFC ABCA3” value (ABCA3)?
A: Its value is -4.59.

Q: What about the “logFC HAND2” value (HAND2) of the same molecule?
A: The value was -3.26.

Q: And the “logFC SIPA1L3” value (SIPA1L3)?
A: The value was -3.26.

Q: And the “logFC SMTN” value (SMTN)?
A: The value was 2.05.

Q: And the “logFC ZNF7” value (ZNF7)?
A: Its value is -2.38.

Q: What about the “logFC ZSCAN22” value (ZSCAN22) of the same molecule?
A: Its value is -2.09.
